Reference: patent publication US10183015B2, “Heterocyclic compounds and methods of use” (Medivation Technologies LLC, priority 2015, dated 2019)
Where “and” joins values, the source holds several entries; their conditions need not be identical. Equal entries are not always repeated.

Experiments:
Assay type in all cases: in vivo
[1] = test system: 60% high fat Paigen diet induced NASH mouse model; assay: Short-term (21 day) Paigen-diet NASH mouse model: plasma ALT, AST, triglycerides, cholesterol, free fatty acids
Description: (§1) To investigate whether Compound #37 prevents the development of pathology associated with NASH and steatosis in an acute exploratory disease model, a study was conducted using a diet-induced acute liver steatosis model in mice. As described below, in this study, C57BL/6J mice were initiated on the Paigen diet and simultaneously treated with Compound #37 (5, 20, and 40 mg/kg/day) or vehicle control (20% HPβCD 10 mL/kg/day) by oral gavage for 21 days.
(§2) After acclimation, 8-week old male C57Bl/6J mice (Charles River) weighing about 25 g were randomized in 4 groups according their body weight and treated once daily around noon by oral gavage with vehicle, or Compound #37 at various for 21 days as follows: Group 1: vehicle-20% (2-hydroxypropyl)-β-cyclodextrin (HP-β-CD) (n=10); Group 2: Compound #37, 5 mg/kg (n=10) Group 3: Compound #37, 20 mg/kg (n=10) Group 4: Compound #37, 40 mg/kg (n=10). During the treatment period, body weight and food intake (measured over 24h) were measured 3 times per week and once a week, respectively. During the acclimation, all mice were fed a standard diet (Special Diets Services RM1 (E), product no. 801492) and tap water ad libitum. After the acclimation period, mice were fed until the end of the experiment with a 60% high fat Paigen diet (60 kcal % fat, 1.25% cholesterol, and 0.5% cholate; D11061901, Research Diet) and tap water ad libitum.
One hour after the last dosing (noon), blood was collected by retro-orbital bleeding (maximal volume on EDTA) under isoflurane anesthesia to measure plasma triglycerides, total cholesterol, non-esterified fatty acid, ALT and AST. Mice were then sacrificed by cervical dislocation, and livers were harvested and weighed. Liver samples from the same lobe were dissected, frozen, and analyzed as described below.
Data Analysis. Values are presented as mean±standard error of the mean (sem). To assess the compound effect, treated groups were compared to vehicle with a 1-way ANOVA+Dunnett's post-test. […] For RT-qPCR and score Kruskall-Wallis test was performed with Dunns post-test. For body weight evolution the treated groups were compared to vehicle with a 2-way ANOVA with Bonferroni post-test. For each test, a p<0.05 was considered significant.

[2] = test system: MCP-1; assay: DIN mouse model: hepatic MCP-1 levels; conditions: 20 mg/kg; for MCP1: hepatic
Description: Male C57Bl/6J mice (8 weeks old) were housed in enriched ventilated cages (31×12.5×12.7 cm) throughout the experimental phase. Animals' cages litters were changed at least once a week. Animal were housed 5 per cage on inverted 12-hour light cycle (at 09:00 am lights off), 22±2° C. and 55±10% relative humidity. The acclimation period was 20 days. During the acclimation period, all mice were fed a standard diet (RM1 (E) 801492, SDS) and tap water ad libitum. After the acclimation period, mice were fed with the DIN diet (60% fat, cholesterol enriched) and fructose-enriched tap water ad libitum until the end of the experiment.
At 6 weeks of diet, mice were 4-hour fasted (09:00 am to 1:00 pm) and blood (150 μl/EDTA) was collected at 01:00 pm by retro-orbital bleeding under isoflurane anesthesia. Mice were then allocated in 2 homogenous groups (n=12/group) according to their plasma levels of ALT (average levels: 685U/L), AST (average levels: 627U/L) and HOMA-IR index (average value: 4.7), into 2 homogenous groups (see values at day 0 in Tables 15A and 15B ALT/AST and Tables 16A and 16B for HOMA-IR). Mice were then treated once daily by oral gavage with vehicle (Group 1) or Compound #37 at 20 mg/kg (Group 2) for 70 days.

[3] = test system: ACC1; assay: Short-term Paigen-diet NASH mouse model: hepatic ACC1 gene expression (RT-qPCR); conditions: liver, 21 days; for DDct: ACC1 Dct relative to vehicle mean; for Dct: ACC1 minus 18S; for 2DDct: ACC1 relative expression to vehicle group, normalized to 18S; for ACC1: raw RT-qPCR value
Description: as §1, §2
Gene expression analysis. Hepatic expression levels of genes involved in lipid metabolism (FAS, SREBP1, ACC1, SCD1), cholesterol metabolism (HMG-CoAR, LDLR), SREBP proteolysis (SCAP, INSIG1), ER stress (PERK), oxidative stress (NRF2), inflammation (MCP-1), and fibrosis (collagen 1α1) were quantified by RTqPCR. Expression level was normalized to 18S gene expression and relative expression to vehicle group was calculated with the […] method.

[4] = ob/ob mice: tolerability, weight gain and food intake; conditions: over 8 weeks, all treatment groups
Description: Groups of mice were either untreated (group 1) or treated for 8 weeks with vehicle (group 2), or with Compound #37 at 5 mg/kg (group 3), 10 mg/kg (group 4), or 20 mg/kg (group 5). Treatment was daily by oral gavage in vehicle (20% HPβCD). Values are presented as mean±standard error of the mean (sem). A t test was performed to compare the untreated group and the vehicle group. Then Compound #37-treated groups were compared to the vehicle-treated group with a 1-way ANOVA+Dunnett's post-test. […] For each test, a p<0.05 was considered significant. Of note, animal #39, group 1 was excluded from the statistical analysis, due to low values for all parameters measured. Some other values were considered as out-liners and excluded from the statistical analysis when the value was far below the mean minus 2 SD. Excluded values are marked with an asterisk in Tables 21-23.
These plasma lipid results are consistent with SCAP/SREBP pathway inhibition seen in tissue-specific SCAP knockout mice (Horton et al, 2002) and with inhibition of SREBP in vivo (Moon et al, 2012).

[5] = 5 mg/kg p.o. daily, 21 days of diet and treatment, group mean
[6] = 5 mg/kg p.o. daily, 21 days of diet and treatment, individual animals
[7] = 20 mg/kg p.o. daily, 21 days of diet and treatment, group mean
[8] = 20 mg/kg p.o. daily, 21 days of diet and treatment, individual animals
[9] = 40 mg/kg p.o. (stopped after 4 administrations), 9 days of diet, group mean
[10] = 40 mg/kg p.o. (stopped after 4 administrations), 9 days of diet, individual animals
[11] = Compound #37 5 mg/kg, group mean, n=8
[12] = Compound #37 5 mg/kg, individual animals, 5 mg/kg
[13] = Compound #37 20 mg/kg, group mean, n=6
[14] = Compound #37 20 mg/kg, individual animals, 20 mg/kg

Which results are given for `CC(C)Cc1cc(-c2nc(-c3ccc(NS(=O)(=O)C(F)(F)F)cc3Cl)cs2)ccn1` [Compound 37, N-(3-chloro-4-(2-(2-isobutylpyridin-4-yl)thiazol-4-yl)phenyl)-1,1,1-trifluoromethanesulfonamide]?
ALT (U/L) [1, 5]: 419.3 U/L; AST (U/L) [1, 5]: 449.4 U/L; AST/ALT ratio [1, 5]: 1.2; ALT (U/L) [1, 6]: 382 U/L and 620 U/L and 346 U/L and 825 U/L and 267 U/L and 246 U/L and 255 U/L and 447 U/L and 435 U/L and 370 U/L; AST (U/L) [1, 6]: 350 U/L and 416 U/L and 710 U/L and 405 U/L and 286 U/L and 392 U/L and 481 U/L and 528 U/L and 477 U/L; AST/ALT ratio [1, 6]: 0.92 and 1.20 and 0.86 and 1.52 and 1.16 and 1.54 and 1.08 and 1.21 and 1.29; ALT (U/L) [1, 7]: 403.5 U/L; AST (U/L) [1, 7]: 431.2 U/L; AST/ALT ratio [1, 7]: 1.1; ALT (U/L) [1, 8]: 266 U/L and 587 U/L and 432 U/L and 413 U/L and 385 U/L and 338 U/L; AST (U/L) [1, 8]: 362 U/L and 467 U/L and 344 U/L and 615 U/L and 424 U/L and 375 U/L; AST/ALT ratio [1, 8]: 1.36 and 0.80 (2×) and 1.49 and 1.10 and 1.11; ALT (U/L) [1, 9]: 7043.8 U/L; AST (U/L) [1, 9]: 2685.0 U/L; AST/ALT ratio [1, 9]: 0.8; ALT (U/L) [1, 10]: 1095 U/L and 1160 U/L and 12560 U/L and 13360 U/L; AST (U/L) [1, 10]: 1165 U/L and 1555 U/L and 3900 U/L and 4120 U/L; AST/ALT ratio [1, 10]: 1.1 and 1.3 and 0.3 (2×); mean AST and ALT ([1]; 40 mg/kg, 4 surviving animals, sacrifice on day 9): > 2500 U/L; ALT and AST levels ([1]; 40 mg/kg, day 9): very high; ALT (U/L) Mean ([1]; Table B7, 5 mg/kg): 419.30 U/L; AST (U/L) Mean ([1]; Table B7, 5 mg/kg): 449.44 U/L; ALT (U/L) Mean ([1]; Table B7, 20 mg/kg): 403.50 U/L; AST (U/L) Mean ([1]; Table B7, 20 mg/kg): 431.17 U/L; Hepatic MCP-1 levels reduction ([2]; 70 days, p<0.001 vs. vehicle): 70%; MCP1 ([2]; group mean, n 11): 1.7 pg/mg liver; MCP1 ([2]; individual animals): 1.34 pg/mg liver and 1.53 pg/mg liver and 0.60 pg/mg liver and 2.54 pg/mg liver and 1.76 pg/mg liver and 1.72 pg/mg liver and 1.42 pg/mg liver and 1.21 pg/mg liver and 1.78 pg/mg liver and 1.90 pg/mg liver and 2.59 pg/mg liver; DDct [3, 11]: 0.81; DDct [3, 12]: 1.08 and 0.78 and 1.88 and 3.12 and −0.53 and −0.87 and 1.01 and 0.01; DDct [3, 13]: 2.71; DDct [3, 14]: 0.6 and 7.15 and 3.66 and 0.46 and 3.91 and 0.45; Dct [3, 11]: 18.7; Dct [3, 12]: 19 and 18.7 and 19.8 and 21.04 and 17.39 and 17.05 and 18.93 and 17.93; Dct [3, 13]: 20.6; Dct [3, 14]: 18.52 and 25.07 and 21.58 and 18.38 and 21.83 and 18.37; 2DDct [3, 11]: 0.78; 2DDct [3, 12]: 0.47 and 0.58 and 0.27 and 0.12 and 1.44 and 1.83 and 0.5 and 0.99; 2DDct [3, 13]: 0.38; 2DDct [3, 14]: 0.66 and 0.01 and 0.08 and 0.73 (2×) and 0.07; ACC1 [3, 11]: 30.9; ACC1 [3, 12]: 32.46 and 31.81 and 31.41 and 34.39 and 28.99 and 28.84 and 30.07 and 29.05; ACC1 [3, 13]: 32.8; ACC1 [3, 14]: 31.43 and 37.36 and 33.78 and 31.41 and 33.32 and 29.63; tolerability [4]: generally well tolerated
